{"source": "patent US20220194938A1", "about": "“NOVEL COMPOUNDS AND PHARMACEUTICAL COMPOSITIONS THEREOF FOR THE TREATMENT OF INFLAMMATORY DISORDERS” (GALAPAGOS NV, priority 2019, published 2022)"}
{"target": "T1, human IRAK-4 (Homo sapiens, UniProt Q9NWZ3)", "T1 construct": "purchased Carna Biosciences 09 145", "T1 sequence (Q9NWZ3 1-460)": "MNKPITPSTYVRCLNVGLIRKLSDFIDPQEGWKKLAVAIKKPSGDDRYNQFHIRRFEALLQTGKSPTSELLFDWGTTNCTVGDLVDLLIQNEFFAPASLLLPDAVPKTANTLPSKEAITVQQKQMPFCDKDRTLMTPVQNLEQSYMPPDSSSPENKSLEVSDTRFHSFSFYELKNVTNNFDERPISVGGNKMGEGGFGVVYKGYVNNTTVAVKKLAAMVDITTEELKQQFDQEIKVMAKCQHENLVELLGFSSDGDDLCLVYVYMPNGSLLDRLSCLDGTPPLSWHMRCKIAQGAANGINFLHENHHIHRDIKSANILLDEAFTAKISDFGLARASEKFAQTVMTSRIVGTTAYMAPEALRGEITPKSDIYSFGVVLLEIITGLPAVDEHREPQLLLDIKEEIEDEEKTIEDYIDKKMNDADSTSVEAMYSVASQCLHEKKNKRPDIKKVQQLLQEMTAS", "assay": "Phosphorylation IC50 determination for human IRAK-4 (ADP-Glo kinase assay)", "conditions": "human IRAK-4, RIP140 substrate, Km ATP; read-out: IRAK4 ADPglo biochemical assay IC50", "procedure": "3.1. Phosphorylation IC50 Determination for Human IRAK-4\nThe phosphorylation of the substrate RIP140 (SEQ ID1) by IRAK4 at Km ATP was detected with the ADP-Glo Kinase Assay (Promega, Cat #V9103), a luminescent kinase assay which measures the ADP formed from a kinase reaction. (Zegzouti et al. 2009) In a second step the kinase reaction was terminated and all the remaining ATP was depleted. In a final step the ADP was converted into ATP and this newly synthesized ATP was measured by using a luciferase/luciferin reaction with a luminescent reader. The luminescent signal positively correlated with kinase activity, in particular kinase inhibition giving a decrease of the luminescent signal.\nFor the semi-automated assay, the positive control (100% inhibition) was prepared by diluting 10 mM staurosporine stock mixture (20 μL) in water (3.8 mL) and DMSO (180 μL), thus resulting in a […] staurosporine solution at 1% DMSO (final concentration after further dilution in the kinase reaction).\nFor the automated assay, no pre-dilution of the 10 mM staurosporine stock was made. 10 mM staurosporine was spotted directly in the assay plate using acoustic dispensing and complemented with DMSO to result in a similar final concentration as mentioned above.\nFor the semi-automated assay, the negative control (0% inhibition) was prepared by mixing water (3.8 mL) and DMSO (200 μL) resulting in a final concentration of 1% DMSO after further dilution in the kinase reaction. For the automated assay no pre-dilution of DMSO was done. 100% DMSO was spotted directly on the assay plate.\nThe assay buffer solution was prepared at a concentration corresponding to 5 fold the final (most diluted) assay concentration by mixing a solution of 125 mM TRIS pH 7.5+0.05% Triton X-100+2.5 mM EGTA (5.27 mL) with 1M mgCl2 (72 μL), 1M DTT (57.6 μL), and 200 mM MnCl2 (360 μL).\nFor example, for the semi-automated method, the enzyme-substrate mixture was prepared by mixing water (3999 μL), assay buffer solution (1380 μL), 1 mM RIP140 (138 μL—SEQ ID1), and 200 ng/mL IRAK 4 (3.45 μL Carna Biosciences, 09 145).\nFor semi-automated method, the ATP mixture was prepared at a concentration corresponding to 2.5 fold the final (most diluted) assay concentration of the semi-automated method and 1.5 fold the final (most diluted) assay concentration of the automated method. For example, for the semi-automated method, the ATP mixture was prepared by mixing water (4126 μL), assay buffer solution (1380 μL), and 10 mM ATP (13.80 μL).\nThe assay was performed either in a semi-automated or fully automated manner. The assay volume and the incubation time of the ADP detection were different accordingly the method used.\n3.1.3.1. Semi-Automated Assay\nThe compounds were prepared as a serial dilution of 10 point dose responses with 1/5 dilution steps in 100% DMSO starting from 2 mM highest concentration, diluted 1/20 in water. 1 μL was transferred dry to the assay plates.\nOn each assay plate 32 wells of each control (positive & negative) were added, followed by 2 μL enzyme-substrate mixture.\nThe reaction was started by adding 2 μL diluted ATP (final concentration Km ATP) on the assay plates. Plates were centrifuged for a few seconds at 1000 rpm followed by an incubation at r.t. for 120 min.\nThe reactions were stopped and the unconsumed ATP was depleted by adding 5 μL ADP-glo Reagent (Promega, Cat #V9103) to the reaction. The plates were quickly centrifuged at 1000 rpm and incubated at r.t. for 40 min corresponding to full ATP depletion.\nThe ADP was converted back to ATP and luciferase and luciferin were introduced to detect ATP by adding 10 μL kinase detection reagent (Promega, Cat #V9103) to the reaction. The plates were centrifuged for a few seconds at 1000 rpm and incubated at r.t. for a further 30 min.\nLuminescent read out was performed on an Envision luminescent reader (Perkin Elmer). […]", "units": {"IC50": "nM"}}
{"smiles": "[2H]C([2H])([2H])NC(=O)c1cc2nc(CCC(C)(C)O)cn2cc1NC(=O)c1cccc(C(F)(F)F)n1", "note": "[Compound 1, 2-(3-hydroxy-3-methyl-butyl)-N-(trideuteriomethyl)-6-[[6-(trifluoromethyl)pyridine-2-carbonyl]amino]imidazo[1,2-a]pyridine-7-carboxamide]", "IC50": "0.1 to 5"}
{"smiles": "CNC(=O)c1cc2nc(CCC(C)(C)O)cn2cc1NC(=O)c1cccc(C(F)(F)F)n1", "note": "[Compound 2, 2-(3-hydroxy-3-methyl-butyl)-N-methyl-6-[[6-(trifluoromethyl)pyridine-2-carbonyl]amino]imidazo[1,2-a]pyridine-7-carboxamide]", "IC50": "0.1 to 5"}
{"smiles": "COc1cc2nc(CCC(C)(C)O)cn2cc1NC(=O)c1cccc(C(F)(F)F)n1", "note": "[Compound 3, N-[2-(3-hydroxy-3-methyl-butyl)-7-methoxy-imidazo[1,2-a]pyridin-6-yl]-6-(trifluoromethyl)pyridine-2-carboxamide]", "IC50": "0.1 to 5"}
{"smiles": "COc1cc2nc(CCC(C)(C)O)cn2cc1NC(=O)c1cccn(C)c1=O", "note": "[Compound 4, N-[2-(3-hydroxy-3-methyl-butyl)-7-methoxy-imidazo[1,2-a]pyridin-6-yl]-1-methyl-2-oxo-pyridine-3-carboxamide]", "IC50": "5 to 10"}
{"smiles": "COc1cc2nc(CCC(C)(C)O)cn2cc1NC(=O)c1cccn(C2CC2)c1=O", "note": "[Compound 5, 1-cyclopropyl-N-[2-(3-hydroxy-3-methyl-butyl)-7-methoxy-imidazo[1,2-a]pyridin-6-yl]-2-oxo-pyridine-3-carboxamide]", "IC50": "0.1 to 5"}
{"smiles": "COc1cc2nc(CCC(C)(C)O)cn2cc1NC(=O)c1cccc(C)n1", "note": "[Compound 6, N-[2-(3-hydroxy-3-methyl-butyl)-7-methoxy-imidazo[1,2-a]pyridin-6-yl]-6-methyl-pyridine-2-carboxamide]", "IC50": "0.1 to 5"}
{"smiles": "COc1cc2nc(CCC(C)(C)O)cn2cc1NC(=O)c1cccc(C(F)F)n1", "note": "[Compound 7, 6-(difluoromethyl)-N-[2-(3-hydroxy-3-methyl-butyl)-7-methoxy-imidazo[1,2-a]pyridin-6-yl]pyridine-2-carboxamide]", "IC50": "0.1 to 5"}
{"smiles": "COc1cccc(C(=O)Nc2cn3cc(CCC(C)(C)O)nc3cc2OC)n1", "note": "[Compound 8, N-[2-(3-hydroxy-3-methyl-butyl)-7-methoxy-imidazo[1,2-a]pyridin-6-yl]-6-methoxy-pyridine-2-carboxamide]", "IC50": "0.1 to 5"}
{"smiles": "COc1cc2nc(CCC(C)(C)O)cn2cc1NC(=O)c1cccn(C(F)F)c1=O", "note": "[Compound 12, 1-(difluoromethyl)-N-[2-(3-hydroxy-3-methyl-butyl)-7-methoxy-imidazo[1,2-a]pyridin-6-yl]-2-oxo-pyridine-3-carboxamide]", "IC50": "5 to 10"}
{"smiles": "COc1cc2nc(CCC(C)(C)O)cn2cc1NC(=O)c1cccn(CC(F)(F)F)c1=O", "note": "[Compound 13, N-[2-(3-hydroxy-3-methyl-butyl)-7-methoxy-imidazo[1,2-a]pyridin-6-yl]-2-oxo-1-(2,2,2-trifluoroethyl)pyridine-3-carboxamide]", "IC50": "> 50"}
{"smiles": "COc1cc2nc(CCC(C)(C)O)cn2cc1NC(=O)c1cccn(C2CCC2)c1=O", "note": "[Compound 18, 1-cyclobutyl-N-[2-(3-hydroxy-3-methyl-butyl)-7-methoxy-imidazo[1,2-a]pyridin-6-yl]-2-oxo-pyridine-3-carboxamide]", "IC50": "0.1 to 5"}
{"smiles": "COc1cc2nc(CCC(C)(C)O)cn2cc1NC(=O)c1cccc(C(C)(F)F)n1", "note": "[Compound 20, 6-(1,1-difluoroethyl)-N-[2-(3-hydroxy-3-methyl-butyl)-7-methoxy-imidazo[1,2-a]pyridin-6-yl]pyridine-2-carboxamide]", "IC50": "0.1 to 5"}
{"smiles": "CCn1cccc(C(=O)Nc2cn3cc(CCC(C)(C)O)nc3cc2OC)c1=O", "note": "[Compound 23, 1-ethyl-N-[2-(3-hydroxy-3-methyl-butyl)-7-methoxy-imidazo[1,2-a]pyridin-6-yl]-2-oxo-pyridine-3-carboxamide]", "IC50": "5 to 10"}
{"smiles": "COc1cc2nc(CCS(C)(=O)=O)cn2cc1NC(=O)c1cccc(C(F)(F)F)n1", "note": "[Compound 24, N-[7-methoxy-2-(2-methylsulfonylethyl)imidazo[1,2-a]pyridin-6-yl]-6-(trifluoromethyl)pyridine-2-carboxamide]", "IC50": "0.1 to 5"}
{"smiles": "COc1cc2nc(CCS(C)(=O)=O)cn2cc1NC(=O)c1cccn(C2CC2)c1=O", "note": "[Compound 25, 1-cyclopropyl-N-[7-methoxy-2-(2-methylsulfonylethyl)imidazo[1,2-a]pyridin-6-yl]-2-oxo-pyridine-3-carboxamide]", "IC50": "0.1 to 5"}
{"smiles": "CC(C)(O)CCc1cn2cc(NC(=O)c3cccc(C(F)(F)F)n3)c(C(N)=O)cc2n1", "note": "[Compound 31, 2-(3-hydroxy-3-methyl-butyl)-6-[[6-(trifluoromethyl)pyridine-2-carbonyl]amino]imidazo[1,2-a]pyridine-7-carboxamide]", "IC50": "0.1 to 5"}
{"smiles": "COCCc1cn2cc(NC(=O)c3cccc(C(F)(F)F)n3)c(OC)cc2n1", "note": "[Compound 35, N-[7-methoxy-2-(2-methoxyethyl)imidazo[1,2-a]pyridin-6-yl]-6-(trifluoromethyl)pyridine-2-carboxamide]", "IC50": "10 to 50"}
{"smiles": "CCOc1c(NC(=O)c2cccn(C3CC3)c2=O)cn2cc(CCC(C)(C)O)nc2c1F", "note": "[Compound 37, 1-cyclopropyl-N-[7-ethoxy-8-fluoro-2-(3-hydroxy-3-methyl-butyl)imidazo[1,2-a]pyridin-6-yl]-2-oxo-pyridine-3-carboxamide]", "IC50": "0.1 to 5"}
{"smiles": "CCOc1c(NC(=O)c2cccn(C)c2=O)cn2cc(CCC(C)(C)O)nc2c1F", "note": "[Compound 38, N-[7-ethoxy-8-fluoro-2-(3-hydroxy-3-methyl-butyl)imidazo[1,2-a]pyridin-6-yl]-1-methyl-2-oxo-pyridine-3-carboxamide]", "IC50": "5 to 10"}
{"smiles": "CCOc1c(NC(=O)c2cccn(C3CC3)c2=O)cn2cc(CCS(C)(=O)=O)nc2c1F", "note": "[Compound 39, 1-cyclopropyl-N-[7-ethoxy-8-fluoro-2-(2-methylsulfonylethyl)imidazo[1,2-a]pyridin-6-yl]-2-oxo-pyridine-3-carboxamide]", "IC50": "5 to 10"}
{"smiles": "COc1c(NC(=O)c2cccn(C3CC3)c2=O)cn2cc(CCC(C)(C)O)nc2c1F", "note": "[Compound 42, 1-cyclopropyl-N-[8-fluoro-2-(3-hydroxy-3-methyl-butyl)-7-methoxy-imidazo[1,2-a]pyridin-6-yl]-2-oxo-pyridine-3-carboxamide]", "IC50": "0.1 to 5"}
{"smiles": "CC(C)(O)CCc1cn2cc(NC(=O)c3cccc(C(F)(F)F)n3)c(C(=O)NCC(F)F)cc2n1", "note": "[Compound 48, N-(2,2-difluoroethyl)-2-(3-hydroxy-3-methylbutyl)-6-(6-(trifluoromethyl)picolinamido)imidazo[1,2-a]pyridine-7-carboxamide]", "IC50": "0.1 to 5"}
{"smiles": "CCNC(=O)c1cc2nc(CCC(C)(C)O)cn2cc1NC(=O)c1cccc(C(F)(F)F)n1", "note": "[Compound 49, N-ethyl-2-(3-hydroxy-3-methylbutyl)-6-(6-(trifluoromethyl)picolinamido)imidazo[1,2-a]pyridine-7-carboxamide]", "IC50": "0.1 to 5"}
